# Measured values from patent publication US5830864A, “Antiherpes peptide derivatives having a ureido n-terminus” (priority 1995, dated 1998).
# *1 amine or outer side, *2 acyl side, *3 side chain or, on linkers, in order; H or OH if unused. Where a SMILES comes first, the peptide text is derived from it. [ ]: non-standard residue; d: D form. The star is where a group is joined. Gly(1-adamantyl) = N[C@H](C(=O)O)C12CC3CC(CC(C3)C1)C2; Asp(3,3-(CH2)4) = N[C@H](C(=O)O)C1(C(=O)O)CCCC1; tBuAla = CC(C)(C)C[C@H](N)C(=O)O; Tle = CC(C)(C)[C@H](N)C(=O)O; NH(3-pentyl) = CCC(CC)N*; Pyrrolidide = C1CCN(*)C1; X2 = CC(C)(C)CC(C)(C)N*; CO = O=C([*:1])[*:2]; X1 = CCCC1(N*)CCCC1; X3 = CCCC(C)(C)N*; X4 = CCCC(CCC)N*
# Biological target: HSV-1 ribonucleotide reductase (Human herpesvirus 1, UniProt P08543)
# Assay: biochemical
# Description: HSV-1 ribonucleotide reductase (partially purified) was obtained from quiescent BHK-21/C13 cells infected with strain F HSV-1 virus at 10 plaque forming units/cell as described by E. A. Cohen et al., J. Gen.
# The number of units of the enzyme preparation used in each assay was constant, based on the specific activity of the enzyme preparation.
# Chain of HSV-1 ribonucleotide reductase (P08543 whole entry): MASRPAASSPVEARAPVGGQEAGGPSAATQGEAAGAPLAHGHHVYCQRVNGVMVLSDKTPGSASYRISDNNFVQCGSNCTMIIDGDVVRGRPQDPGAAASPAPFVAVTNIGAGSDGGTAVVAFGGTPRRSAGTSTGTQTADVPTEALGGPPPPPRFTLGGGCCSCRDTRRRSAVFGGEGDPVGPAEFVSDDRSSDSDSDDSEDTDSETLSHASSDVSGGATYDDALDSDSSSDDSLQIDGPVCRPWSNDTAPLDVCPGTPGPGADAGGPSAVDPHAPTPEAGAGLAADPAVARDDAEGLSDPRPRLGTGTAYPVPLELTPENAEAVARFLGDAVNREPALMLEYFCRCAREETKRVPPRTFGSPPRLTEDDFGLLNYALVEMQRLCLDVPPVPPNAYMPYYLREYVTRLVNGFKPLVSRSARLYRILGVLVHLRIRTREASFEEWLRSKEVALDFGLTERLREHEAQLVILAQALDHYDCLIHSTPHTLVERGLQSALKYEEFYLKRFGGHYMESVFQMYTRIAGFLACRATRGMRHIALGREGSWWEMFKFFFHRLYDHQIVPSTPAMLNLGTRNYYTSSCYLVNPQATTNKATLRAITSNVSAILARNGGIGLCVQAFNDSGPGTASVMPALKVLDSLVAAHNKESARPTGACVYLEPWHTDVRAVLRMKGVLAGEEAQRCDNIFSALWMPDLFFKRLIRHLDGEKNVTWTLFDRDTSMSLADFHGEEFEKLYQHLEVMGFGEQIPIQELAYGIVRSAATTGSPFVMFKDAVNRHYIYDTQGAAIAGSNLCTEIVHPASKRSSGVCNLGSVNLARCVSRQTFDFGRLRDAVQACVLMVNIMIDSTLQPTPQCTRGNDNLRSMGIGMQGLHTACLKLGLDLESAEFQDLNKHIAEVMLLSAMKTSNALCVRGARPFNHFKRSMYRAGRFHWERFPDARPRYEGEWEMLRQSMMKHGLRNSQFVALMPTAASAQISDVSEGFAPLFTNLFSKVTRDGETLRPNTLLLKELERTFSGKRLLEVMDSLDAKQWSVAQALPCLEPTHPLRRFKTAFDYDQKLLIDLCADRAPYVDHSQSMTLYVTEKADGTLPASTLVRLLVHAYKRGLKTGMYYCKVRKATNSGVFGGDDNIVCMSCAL
row,Compound,IC50 [nM]
1,"CCCC1(NC(=O)N[C@H](C(=O)N[C@@H](CC(=O)N2CCCC2)C(=O)N[C@H](C(=O)N[C@@H](CC(C)(C)C)C(=O)OCC)C2(C(=O)O)CCCC2)C(C)(C)C)CCCC1 [(1-propylcyclopentyl)-NHC(O)-Tbg-Asp(pyrrolidino)-Asp(cyPn)-γMeLeu-OEt] ({X1-CO}-[Tle]D(Pyrrolidide)[Asp(3,3-(CH2)4)][tBuAla]-OEt)",200
2,"CCCC1(NC(=O)N[C@H](C(=O)N[C@@H](CC(=O)N2CCCC2)C(=O)N[C@H](C(=O)N[C@@H](CC(C)(C)C)C(=O)O)C2(C(=O)O)CCCC2)C(C)(C)C)CCCC1 [(1-propylcyclopentyl)-NHC(O)-Tbg-Asp(pyrrolidino)-Asp(cyPn)-γMeLeu-OH] ({X1-CO}-[Tle]D(Pyrrolidide)[Asp(3,3-(CH2)4)][tBuAla]-OH)",130
3,CC(C)(C)C[C@@H](CO)NC(=O)[C@@H](NC(=O)[C@H](CC(=O)N1CCCC1)NC(=O)[C@@H](NC(=O)NCc1ccccc1)C(C)(C)C)C1(C(=O)O)CCCC1 [BzlNHC(O)-Tbg-Asp(pyrrolidino)-Asp(cyPn)-γMeLeucinol],410
4,"CCC(CC)NC(=O)N[C@H](C(=O)N[C@@H](CC(=O)N1CCCC1)C(=O)N[C@H](C(=O)N[C@@H](CC(C)(C)C)C(=O)O)C1(C(=O)O)CCCC1)C12CC3CC(CC(C3)C1)C2 [Et2 CHNHC(O)--NH-(S)-CH(adamantyl)-C(O)-Asp(pyrrolidino)-Asp(cyPn)-γMeLeu-OH] ({NH(3-pentyl)-CO}-[Gly(1-adamantyl)]D(Pyrrolidide)[Asp(3,3-(CH2)4)][tBuAla]-OH)",82
5,CCC(CC)NC(=O)N[C@H](C(=O)N[C@@H](CC(=O)N1CCCC1)C(=O)N[C@H](C(=O)N[C@H](CO)CC(C)(C)C)C1(C(=O)O)CCCC1)C12CC3CC(CC(C3)C1)C2 [Et2 CHNHC(O)--NH-(S)-CH(adamantyl)-C(O)-Asp(pyrrolidino)-Asp(cyPn)-γMeLeucinol],160
6,CCC(CC)NC(=O)N[C@H](C(=O)N[C@@H](CC(=O)N1CCCC1)C(=O)N[C@H](C(=O)NCCC(C)(C)C)C1(C(=O)O)CCCC1)C(C)(C)C [Et2 CHNHC(O)-Tbg-Asp(pyrrolidino)-Asp(cyPn)-NHCH2 CH2 CMe3],200
7,CCC(CC)NC(=O)N[C@H](C(=O)N[C@@H](CC(=O)N1CCCC1)C(=O)N[C@H](C(=O)NCC(C)C)C1(C(=O)O)CCCC1)C(C)(C)C [Et2 CHNHC(O)-Tbg-Asp(pyrrolidino)-Asp(cyPn)-NHCH2 CHMe2],600
8,CCC(CC)NC(=O)N[C@H](C(=O)N[C@@H](CC(=O)N1CCCC1)C(=O)N[C@H](C(=O)NCC(C)(C)C)C1(C(=O)O)CCCC1)C(C)(C)C [Et2 CHNHC(O)-Tbg-Asp(pyrrolidino)-Asp(cyPn)-NHCH2 CMe3],130
9,"CCC(CC)NC(=O)N[C@H](C(=O)N[C@@H](CC(=O)N1CCCC1)C(=O)N[C@H](C(=O)N[C@@H](CC(C)(C)C)C(=O)O)C1(C(=O)O)CCCC1)C(C)(C)C [Et2 CHNHC(O)-Tbg-Asp(pyrrolidino)-Asp(cyPn)-γMeLeu-OH] ({NH(3-pentyl)-CO}-[Tle]D(Pyrrolidide)[Asp(3,3-(CH2)4)][tBuAla]-OH)",100
10,CCC(CC)NC(=O)N[C@H](C(=O)N[C@@H](CC(=O)N1CCCC1)C(=O)N[C@H](C(=O)N[C@H](CO)CC(C)(C)C)C1(C(=O)O)CCCC1)C(C)(C)C [Et2 CHNHC(O)-Tbg-Asp(pyrrolidino)-Asp(cyPn)-γMeLeucinol],98
11,CCC(CC)NC(=O)N[C@H](C(=O)N[C@@H](CC(=O)N1CCCC1)C(=O)N[C@H](C(=O)N[C@@H](CC(C)C)C(=O)O)[C@H](C(=O)O)C(C)C)C(C)(C)C [Et2 CHNHC(O)-Tbg-Asp(pyrrolidino)-Asp{(R)-iPr}-Leu-OH],570
12,CCC(CC)NC(=O)N[C@H](C(=O)N[C@@H](CC(=O)N1CCCC1)C(=O)N[C@H](C(=O)N[C@@H](CC(C)(C)C)C(=O)O)[C@H](C(=O)O)C(C)C)C(C)(C)C [Et2 CHNHC(O)-Tbg-Asp(pyrrolidino)-Asp{(R)-iPr}-γMeLeu-OH],72
13,CCC(CC)NC(=O)N[C@H](C(=O)N[C@@H](CC(=O)N1CCCC1)C(=O)N[C@H](C(=O)N[C@H](CO)CC(C)(C)C)[C@H](C(=O)O)C(C)C)C(C)(C)C [Et2 CHNHC(O)-Tbg-Asp(pyrrolidino)-Asp{(R)-iPr}-γMeLeucinol],100
14,CCCC(CC)(CCC)NC(=O)N[C@H](C(=O)N[C@@H](CC(=O)N1CCCC1)C(=O)N[C@H](C(=O)N[C@H](CC)C(C)(C)C)C1(C(=O)O)CCCC1)C(C)(C)C [EtPr2 CNHC(O)-Tbg-Asp(pyrrolidino)Asp(cyPn)-NH-(R)-CH(Et)CMe3],140
15,CC(C)NC(=O)N[C@H](C(=O)N[C@@H](CC(=O)N1CCCC1)C(=O)N[C@H](C(=O)N[C@H](CO)CC(C)(C)C)C1(C(=O)O)CCCC1)C(C)(C)C [Me2 CHNHC(O)-Tbg-Asp(pyrrolidino)-Asp(cyPn)-γMeLeucinol],70
16,"CC(C)(C)C[C@H](NC(=O)[C@@H](NC(=O)[C@H](CC(=O)N1CCCC1)NC(=O)[C@@H](NC(=O)NC(C)(C)CC(C)(C)C)C(C)(C)C)C1(C(=O)O)CCCC1)C(=O)O [Me3 CCH2 CMe2 NHC(O)-Tbg-Asp(pyrrolidino)-Asp(cyPn)-γMeLeu-OH] ({X2-CO}-[Tle]D(Pyrrolidide)[Asp(3,3-(CH2)4)][tBuAla]-OH)",180

row,Compound,IC50 [nM]
1,CC(C)(C)C[C@@H](CO)NC(=O)[C@@H](NC(=O)[C@H](CC(=O)N1CCCC1)NC(=O)[C@@H](NC(=O)NC(C)(C)C)C(C)(C)C)C1(C(=O)O)CCCC1 [Me3 CNHC(O)-Tbg-Asp(pyrrolidino)-Asp(cyPn)-γMeLeucinol],100
2,CNC(=O)N[C@H](C(=O)N[C@@H](CC(=O)N1CCCC1)C(=O)N[C@H](C(=O)N[C@H](CO)CC(C)(C)C)C1(C(=O)O)CCCC1)C(C)(C)C [MeNHC(O)-Tbg-Asp(pyrrolidino)-Asp(cyPn)-γMeLeucinol],890
3,CCCC(C)(CCC)NC(=O)N[C@H](C(=O)N[C@@H](CC(=O)N1CCCC1)C(=O)N[C@H](C(=O)NCC(C)(C)C)C1(C(=O)O)CCCC1)C(C)(C)C [MePr2 CNHC(O)-Tbg-Asp(pyrrolidino)-Asp(cyPn)-NHCH2 CMe3],160
4,CC(C)(C)C[C@@H](CO)NC(=O)[C@@H](NC(=O)[C@H](CC(=O)N1CCCC1)NC(=O)[C@@H](NC(=O)Nc1ccccc1)C(C)(C)C)C1(C(=O)O)CCCC1 [PhNHC(O)-Tbg-Asp(pyrrolidino)-Asp(cyPn)-γMeLeucinol],710
5,CCCC(CCC)NC(=O)N[C@H](C(=O)N[C@@H](CC(=O)N1CCCC1)C(=O)N[C@H](C(=O)N[C@H](CO)CC(C)(C)C)C1(C(=O)O)CCCC1)C(C)(C)C(=O)O [Pr2 CHNHC(O)-Asp(diMe)-Asp(pyrrolidino)-Asp(cyPn)-γMeLeucinol],200
6,CCCC(CCC)NC(=O)N[C@H](C(=O)N[C@@H](CC(=O)N1CCCC1)C(=O)N[C@H](C(=O)NCC(C)(C)CC)C1(C(=O)O)CCCC1)C(C)(C)C [Pr2 CHNHC(O)-Tbg-Asp(pyrrolidino)-Asp(cyPn)-NHCH2 CMe2 Et],240
7,CCCC(CCC)NC(=O)N[C@H](C(=O)N[C@@H](CC(=O)N1CCCC1)C(=O)N[C@H](C(=O)NCC(C)(C)C)C1(C(=O)O)CCCC1)C(C)(C)C [Pr2 CHNHC(O)-Tbg-Asp(pyrrolidino)-Asp(cyPn)-NHCH2 CMe3],180
8,CCCC(CCC)NC(=O)N[C@H](C(=O)N[C@@H](CC(=O)N1CCCC1)C(=O)N[C@H](C(=O)N[C@H](C)C(C)(C)C)C1(C(=O)O)CCCC1)C(C)(C)C [Pr2 CHNHC(O)-Tbg-Asp(pyrrolidino)-Asp(cyPn)-NHCH(CH3)CMe3],180
9,"CCCC(CCC)NC(=O)N[C@H](C(=O)N[C@@H](CC(=O)N1CCCC1)C(=O)N[C@H](C(=O)N[C@@H](CC(C)(C)C)C(=O)O)C1(C(=O)O)CCCC1)C(C)(C)C [Pr2 CHNHC(O)-Tbg-Asp(pyrrolidino)-Asp(cyPn)-γMeLeu-OH] ({X4-CO}-[Tle]D(Pyrrolidide)[Asp(3,3-(CH2)4)][tBuAla]-OH)",96
10,CCCC(CCC)NC(=O)N[C@H](C(=O)N[C@@H](CC(=O)C1CCC1)C(=O)N[C@H](C(=O)NCC(C)(C)C)C1(C(=O)O)CCCC1)C(C)(C)C [Pr2 CHNHC(O)-Tbg-NH-(S)-CH(2-cyclobutyl-2-oxoethyl)C(O)-Asp(cyPn)-NHCH2 CMe3],250
11,CCCC(CCC)NC(=O)N[C@H](C(=O)N[C@@H](CC(=O)C1CCCC1)C(=O)N[C@H](C(=O)NCC(C)(C)C)C1(C(=O)O)CCCC1)C(C)(C)C [Pr2 CHNHC(O)-Tbg-NH-(S)-CH(2-cyclopentyl-2-oxoethyl)C(O)-Asp(cyPn)-NHCH2 CMe3],200
12,CCCC(CCC)NC(=O)N[C@H](C(=O)N[C@@H](CC(=O)C1CCCCC1)C(=O)N[C@H](C(=O)NCC(C)(C)C)C1(C(=O)O)CCCC1)C(C)(C)C [Pr2 CHNHC(O)-Tbg-NHCH(2-cyclohexyl-2-oxoethyl)C(O)-Asp(cyPn)-NHCH2 CMe3],140
13,CCCC(CCC)NC(=O)N[C@H](C(=O)N[C@@H](CC(=O)C(CC)CC)C(=O)N[C@H](C(=O)NCC(C)(C)C)C1(C(=O)O)CCCC1)C(C)(C)C [Pr2 CHNHC(O)-Tbg-NHCH(3-ethyl-2-oxopentyl)CO-Asp(cyPn)-NHCH2 CMe3],400
14,"CCCC(C)(C)NC(=O)N[C@H](C(=O)N[C@@H](CC(=O)N1CCCC1)C(=O)N[C@H](C(=O)N[C@@H](CC(C)(C)C)C(=O)O)C1(C(=O)O)CCCC1)C(C)(C)C [PrMe2 CNHC(O)-Tbg-Asp(pyrrolidino)-Asp(cyPn)-γMeLeu-OH] ({X3-CO}-[Tle]D(Pyrrolidide)[Asp(3,3-(CH2)4)][tBuAla]-OH)",100
15,"CCCC(CCC)NC(=O)N[C@H](C(=O)N[C@@H](CC(=O)N1CCCC1)C(=O)N[C@H](C(=O)N[C@H](CO)CC(C)(C)C)C1(C(=O)O)CCCC1)C(C)(C)C [Title Compound of Example 8, Pr2 CHNHC(O)-Tbg-Asp(pyrrolidino)-Asp(cyPn)-γMeLeucinol]",80
